What was measured:
Format in all cases: cell-based
primary human neurons [1] = assay: TUNEL apoptosis of neurons challenged by (fibrillar Aβ+IL-1β)-activated astrocytes, astrocyte-neuron trans-well; conditions: neurons pretreated 40 h with 1 μM oligonucleotide; 6 h with (fibrillar Aβ+IL-1β)-activated astrocytes
Method: (§1) Primary human astrocytes were grown to confluency on inserts. After 24 h of stimulation by the combination of Aβ (1 μM) and IL-Iβ (10 ng/ml), inserts were washed thrice with HBSS and then placed onto the wells containing primary human neurons. Therefore, in this trans-well model, although neurons and astrocytes face each other, they are separable and the effect of soluble factors released from activated astrocytes on neurons can be studied allowing analysis of neuronal and glial populations separately.
Fragmented DNA was detected in situ by the terminal deoxynucleotidyltransferase-mediated binding of 3′-OH ends of DNA fragments generated in response to fibrillar Aβ1-42, using a commercially available kit (TdT FragEL™) from Calbiochem. […]
(§2) Primary human neurons were incubated with antisense (ASO) and scrambled oligonucleotides (ScO) against N-SMase (A) and A-SMase (FIG. 2B). After 48 h, neurons were analyzed for protein expression of N-SMase and A-SMase. […] After 6 h of treatment with activated astrocytes, apoptotic events in neurons were detected by TUNEL. In FIG. 2D, TUNEL-positive cells were counted manually in four different images of each of three coverslips by three individuals blinded to the experiment. […] Values obtained from the control group served as 100%, and data obtained in other groups were calculated as percent of control accordingly. […]

primary human neurons [2] = assay: MTT metabolism of neurons in astrocyte-neuron trans-well; conditions: neurons pretreated with oligonucleotide; 18 h of stimulation
Method: as §1
Mitochondrial activity was measured with the 3-(4,5-dimethylthiazol-2-yl)-2,5-diphenyltetrazolium bromide (MTT) assay (Sigma). The cells were grown on 24-well culture plates with 500 μl of medium and treated with various reagents according to the experimental design. At the end of the treatment period, 300 μl of culture medium were removed from each well, and 20 μl of MTT solution (5 mg/ml) were added and incubated for 1 h.
as §2, with “A-SMase. In FIG. 2C, primary human astrocytes seeded in inserts were stimulated by the combination of Aβ and IL-1β as described above.” for “A-SMase.”
In FIGS. 3A-3E, primary human astrocytes seeded in inserts were stimulated by the combination of Aβ and IL-Iβ as described above. […] In FIG. 3A, after 1 h, activity of N-SMase was measured in total cell extracts of neurons as described above. […] Values obtained from the control group served as 100%, and data obtained in other groups were calculated as percent of control accordingly.

[3] = tested on: TNF-α, IL-1β and IL-6 mRNAs; assay: TNF-α, IL-1β and IL-6 mRNA expression (RT-PCR) in activated primary human astroglia; conditions: oligonucleotide 40 h, then 6 h of stimulation
Method: Total RNA was isolated from human primary astrocytes using RNA-Easy Qiagen kit following manufactures protocol. To remove any contaminating genomic DNA, total RNA was digested with DNase. Semi-quantitative RT-PCR was carried out as described earlier using oligo (dT) 12-18 as primer and MMLV reverse transcriptase (Clontech) in a 20-μl reaction mixture. The resulting cDNA was appropriately diluted, and diluted cDNA was amplified using Titanium Taq polymerase and the following primers for human proinflammatory genes: […]
Cells pretreated with ASO and ScO against N-SMase and A-SMase for 40 h were stimulated with (Aβ+IL-1β) under serum-free condition. After 24 h of stimulation, the concentration of nitrite was measured in supernatants (FIG. 4A) by Griess reagent. […] Cells were treated with ASO/ScO for 40 h followed by stimulation with the combination of fibrillar Aβ and IL-Iβ as above. After 6 h, the expression of iNOS mRNA was analyzed by both semi-quantitative RT-PCR (C) and quantitative real-time PCR (FIG. 4D). The expression of TNF-a, IL-6 and IL-Iβ mRNAs were analyzed by semi-quantitative RT-PCR (FIG. 4E). Results are mean±SD of three different experiments. ^ap<0.001 vs control; ^bp<0.001 vs (Aβ+IL-Iβ).

primary human neurons [4] = assay: TUNEL apoptosis of neurons challenged by oligomeric Aβ-activated astrocytes, trans-well; conditions: neurons pretreated 40 h with 1 μM oligonucleotide; 6 h
Method: Fragmented DNA was detected in situ by the terminal deoxynucleotidyltransferase-mediated binding of 3′-OH ends of DNA fragments generated in response to fibrillar Aβ1-42, using a commercially available kit (TdT FragEL™) from Calbiochem. Briefly, cover slips were treated with 20 μg/ml proteinase K for 15 min at room temperature and washed prior to terminal deoxynucleotidyltransferase staining.
In FIG. 5A, primary astrocytes were stimulated with fibrillar Aβ1-42, oligomeric Aβ1-42 and reverse peptide Aβ42-1 for 24 h followed by double-labeling of GFAP and iNOS. In FIG. 5B, primary human astrocytes seeded in inserts were stimulated with a combination of I μM of oligomeric Aβ1-42 and 10 ng/ml of IL-Iβ in serum free media. […] After 6 h, neuronal apoptosis was monitored by TUNEL. In FIG. 5C, TUNEL-positive cells were counted manually in four different images of each of three coverslips by three individuals blinded to the experiment. Values obtained from the control group (1) served as 100%, and data obtained from other three groups i.e. the oligomeric Aβ-activated astrocytes (OAA) group (2), the ASO-OAA group (3), and the ScO-OAA group (4) was calculated as percent of control accordingly. Results are mean+S.D. of three different experiments. ^ap<0.001 vs control; ^bp<0.001 vs OAA.

NF-κB = assay: EMSA of NF-κB DNA-binding activity in primary human astroglia; conditions: 1 μM oligonucleotide 40 h; 1 h of stimulation

5′- CAGCGAGCCCGTCCACCAGCC -3′ (DNA, all phosphorothioate, methylation of C not given here) [ASO against N-SMase, ID; NO.: 12]
protection of neurons from activated astrocyte-induced apoptosis (TUNEL) (primary human neurons [1]): markedly protected
activated astroglia-mediated loss of MTT metabolism (primary human neurons [2]): effectively prevented
(Aβ+IL-1β)-induced expression of TNF-α, IL-1β and IL-6 mRNAs [3]: abrogated
oligomeric Aβ-activated astrocyte-induced apoptosis of human neurons (TUNEL) (primary human neurons [4]): blocked
(Aβ+IL-1β)-induced DNA-binding activity of NF-κB (NF-κB): suppressed

— patent US9006205B2, “Antisense oligonucleotides against neutral sphingomyelinase and neutral sphingomyelinase inhibitor GW4869 for degenerative neurological disorders” (Rush University Medical Center, priority 2011, dated 2015)
